Data taken from US20260285992A1, “GIP ACTIVITY MODULATORS AND ORTHOSTATIC INTOLERANCE” (Antag Therapeutics ApS, priority 2023, published 2026).

Key:
[1] = Orthostatic challenges before and after subcutaneous GIP (1-42) or placebo in fasted healthy subjects: heart rate, blood pressure and clinical signs; type: in vivo, human
Method: Synthetic human GIP (1-42) (GIP) (PolyPeptide Group, Strasbourg, France) was dissolved in a sodium hydrogen carbonate buffer with 0.5% human serum albumin in NaCl 9 mg/ml to a final concentration of 4 mg/ml. The solution was sterile filtered and dispensed into glass ampoules. On the appropriate study days, the GIP solutions were further diluted in saline (NaCl 9 mg/ml) to 125 μg/ml. Saline (NaCl 9 mg/mL) was used as placebo.
At the beginning of each study day, participants were weighed and received either a placebo injection or a weight-dependent GIP (1-42) dose of 2.7 μg/kg at time 0.
Four healthy, non-medicated participants between 33-40 years old (one male and three females) were included in the study. On each of the two study days, participants arrived after an overnight fast (at least 10 h fasting). To enable continuous heart rate monitoring, three electrodes compatible with the Holter Spiderview recorder were placed over the rib at V5, on the xiphoid muscle at the bottom of the sternum, and at the sternum over the manubrium after the skin was disinfected or shaved and disinfected for the male. Baseline characterization was initiated at timepoint-60 min and lasted for one hour. For baseline characterization, the participants alternated between the supine position and 10 min orthostatic challenges initiated at timepoints −45 min and −20 min. Orthostatic challenges were elicited by actively standing up from the hospital bed. At timepoint 0 min, the participants received a subcutaneous injection of either 2.7 μg/kg GIP or saline in a single-blinded manner. Following the injection, the participants rested in the supine position for one hour when not doing 10 min orthostatic challenges initiated at 15 min and 40 min post-injection. At time points −50 min, −40 min, −30 min, 10 min, 20 min, 45 min, and 55 min systolic- and diastolic blood pressure as well as heart rate were measured using the Omron M2 blood pressure monitor. The two study days were identical except for the injection of either GIP or saline. Fasting prior to administration of GIP mimics the body's natural response to eating, as eating induces GIP secretion. The method employed thus mimics fasting or postprandial conditions with the emphasis on GIP's physiological effects.

[2] = in vivo; cited from earlier work

## YAEGTFISDYSIAMDKIHQQDFVNWLLAQKGKKNDWKHNITQ [GIP]
[1]; by decreasing SBP and DBP and increasing heart rate, in men and women
  effect on orthostatic tolerance (conclusion): significantly worsens orthostatic tolerance
[1]; first orthostatic challenge following GIP administration, four subjects, 2.7 μg/kg s.c.
  subjects who experienced presyncope and had to lay down: one of the subjects
[1]; four healthy fasted subjects, 2.7 μg/kg GIP (1-42) s.c., orthostatic challenge, Omron M2 monitor, FIG. 1
  increase in heart rate over baseline supine levels, during the orthostatic challenge: 36 bpm
[1]; four healthy fasted subjects, 2.7 μg/kg GIP (1-42) s.c., supine, Omron M2 monitor, FIG. 1
  increase in heart rate over baseline supine levels, supine position: 17 bpm
[1]; four healthy fasted subjects, 2.7 μg/kg s.c., orthostatic challenge, FIG. 5
  change in DBP during the orthostatic challenge compared to placebo levels: −13 mmHg
[1]; four healthy fasted subjects, 2.7 μg/kg s.c., orthostatic challenges, FIG. 4
  decrease in SBP during the orthostatic challenges compared to placebo levels: 12 mmHg
[1]; four healthy fasted subjects, 2.7 μg/kg s.c., supine, FIG. 4
  decrease in SBP in the supine position compared to placebo levels: 4-5 mmHg
[1]; four healthy fasted subjects, 2.7 μg/kg s.c., supine, FIG. 5
  change in DBP in the supine position compared to placebo levels: −10 mmHg
[1]; orthostatic challenges post GIP-injection, 2.7 μg/kg s.c.
  subjects who reported significant dizziness and lightheadedness: Three out of four subjects
[1]; two subjects, 2.7 μg/kg s.c., first orthostatic challenge post injection, FIGS. 2 and 3
  increase in heart rate compared to baseline supine heart rate during the first orthostatic challenge post injection (Holter monitor): 49-50 bpm
[1]; two subjects, 2.7 μg/kg s.c., within 15 min, range depends on the subject, FIGS. 2 and 3
  gradual increase in supine heart rate compared to baseline supine heart rate (Holter monitor): 19-28 bpm
[2]
  half-life: ~ 4 min
